Test results reported in article PMC6277767, “Broad and Region-Specific Impacts of the Synthetic Cannabinoid CP 55,940 in Adolescent and Adult Female Mouse Brains” (Frontiers in Molecular Neuroscience, 2018).

Test system: CD1 female mouse brain lipidome
Assay: Brain-region lipid levels (HPLC/MS/MS lipidomics) 2 h after single i.p. 3 mg/kg CP 55,940 vs vehicle
Assay type: in vivo
Protocol: The Bloomington Institutional Animal Care and Use Committee of Indiana University reviewed and approved the animal procedures. Female mice from the CD1 strain were utilized to match our study examining THC’s effects on the brain lipidome ([Leishman et al., 2018]). Mice were given a single i.p. injection of either 3 mg/kg CP or 1:1:18 cremophor:ethanol:saline vehicle (please refer to the section “3 mg/kg CP Is Relevant for Synthetic Cannabinoid Abuse and Has Stronger Effects on the Female Mouse Brain Lipidome During Adolescence” for a justification of dose and use of female mice). Three different age groups were given injections: PND 35 and PND 50 adolescents, and adult mice (PND 113). At least eight mice in each age group received CP and at least eight received vehicle. Matching the THC study time course ([Leishman et al., 2018]), mice were sacrificed via rapid decapitation 2 h after injection. Brains were immediately removed and flash-frozen in liquid nitrogen, and then stored at -80°C until dissections were performed. Brains were dissected on an ice-cold dissection plate into the following regions: STR, HIPP, CER, THAL, CTX, HYP, MID, and STEM. These abbreviations for these brain areas will be used exclusively when discussing the results generated by these specific dissections. Each dissected area was immediately placed in liquid nitrogen and then stored at -80°C until used for lipid extraction.
Tissue extracts were performed as previously described ([Bradshaw et al., 2006]; [Stuart et al., 2013]; [Raboune et al., 2014]; [Leishman et al., 2016a],[b], [2017], [2018]). First, samples were shock frozen in liquid nitrogen, weighed, and transferred to a centrifuge tube. The mass of the largest sample was multiplied by 50 to determine how many milliliters of HPLC-grade methanol (Fisher, Fair Lawn, NJ, United States) to add. Then, samples were spiked with 500 pmol deuterium-labeled NAGly (d8NAGly; Cayman Chemical, Ann Arbor, MI, United States). Samples were placed on ice in darkness for 2 h then individually homogenized and centrifuged at 19,000 × g for 20 min at 20°C. Supernatants were diluted with HPLC water (purified in house) to make a solution of 75% water, 25% supernatant. Lipids were partially purified on C18 solid phase extraction columns (Agilent, Palo Alto, CA, United States). A series of four elutions with 1.5 mL of 60%, 75%, 85%, and 100% methanol were collected ([Stuart et al., 2013]; [Leishman et al., 2016a],[b], [2018]).
As previously described ([Bradshaw et al., 2006]; [Tan et al., 2006]; [Smoum et al., 2010]; [Stuart et al., 2013]; [Tortoriello et al., 2013]; [Raboune et al., 2014]; [Leishman et al., 2016a],[b], [2017], [2018]), samples were analyzed using an Applied Biosystems API 3000 triple quadrupole mass spectrometer with electrospray ionization (Foster City, CA, United States). Using an Agilent XDB-C18 reversed phase analytical column and optimized mobile phase gradients, 20 μL from each elution were chromatographed. Two Shimadzu 10ADvp pumps (Columbia, MD, United States) provided the pressure for gradient elution. Mobile phase A: 20% methanol, 80% water (v/v) and 1 mM ammonium acetate (Sigma, St. Louis, MO, United States). Mobile phase B: 100% methanol, 1 mM ammonium acetate. Every method run began with 0% mobile phase B, reached 100% mobile phase B flowing at 0.2 mL/min, and gradually returned to 0% mobile phase B.
This screening library will be referred to as the lipidome when discussing data from this study. HPLC/MS/MS data were analyzed using Analyst software (Applied Biosystems) ([Bradshaw et al., 2006]; [Tan et al., 2006]; [Stuart et al., 2013]; [Tortoriello et al., 2013]; [Raboune et al., 2014]; [Leishman et al., 2016a],[b], [2017], [2018]). Chromatograms (Supplementary Figure 3) were generated by determining the retention time of analytes from the analytical column with a [M-1] or [M+1] parent peak and a fragmentation peak corresponding to the programmed values. […]

Structure (SMILES): CCCCCCC(C)(C)c1ccc([C@@H]2C[C@H](O)CC[C@H]2CCCO)c(O)c1 [CP 55,940]
- PGF2α level vs vehicle (PND 35 HIPP): ↑ (1-1.49 times higher than vehicle)
- number of lipids changed (PND 35 HIPP, 65 detected): 39
- 2-arachidonoyl glycerol level vs vehicle (PND 35 HYP): ↓↓↓ (2-2.99 times lower than vehicle)
- 2-linoleoyl glycerol level vs vehicle (PND 35 HYP): ↓↓ (1.50-1.99 times lower than vehicle)
- 2-oleoyl glycerol level vs vehicle (PND 35 HYP): ↓↓ (1.50-1.99 times lower than vehicle)
- 2-palmitoyl glycerol level vs vehicle (PND 35 HYP): ↑ (1-1.49 times higher than vehicle)
- Arachidonic acid level vs vehicle (PND 35 HYP): ↓ (1-1.49 times lower than vehicle)
- Linoleic acid level vs vehicle (PND 35 HYP): ↓ (1-1.49 times lower than vehicle)
- N-arachidonoyl GABA level vs vehicle (PND 35 HYP): ↓ (1-1.49 times lower than vehicle)
- N-arachidonoyl alanine level vs vehicle (PND 35 HYP): ↓↓ (1.50-1.99 times lower than vehicle)
- N-arachidonoyl ethanolamine level vs vehicle (PND 35 HYP): ↓ (1-1.49 times lower than vehicle)
- N-arachidonoyl glycine level vs vehicle (PND 35 HYP): ↓ (1-1.49 times lower than vehicle)
- N-arachidonoyl phenylalanine level vs vehicle (PND 35 HYP): ↓ (1-1.49 times lower than vehicle)
- N-arachidonoyl taurine level vs vehicle (PND 35 HYP): ↓ (1-1.49 times lower than vehicle)
- N-docosahexaenoyl GABA level vs vehicle (PND 35 HYP): ↓ (1-1.49 times lower than vehicle)
- N-docosahexaenoyl ethanolamine level vs vehicle (PND 35 HYP): ↓↓ (1.50-1.99 times lower than vehicle)
- N-linoleoyl alanine level vs vehicle (PND 35 HYP): ↓ (1-1.49 times lower than vehicle)
- N-oleoyl GABA level vs vehicle (PND 35 HYP): ↓ (1-1.49 times lower than vehicle)
- N-oleoyl alanine level vs vehicle (PND 35 HYP): ↓ (1-1.49 times lower than vehicle)
- N-oleoyl ethanolamine level vs vehicle (PND 35 HYP): ↓↓ (1.50-1.99 times lower than vehicle)
- N-palmitoyl ethanolamine level vs vehicle (PND 35 HYP): ↓↓ (1.50-1.99 times lower than vehicle)
- N-palmitoyl leucine level vs vehicle (PND 35 HYP): ↑ (1-1.49 times higher than vehicle)
- N-stearoyl ethanolamine level vs vehicle (PND 35 HYP): ↓ (1-1.49 times lower than vehicle)
- Oleic Acid level vs vehicle (PND 35 HYP): ↓ (1-1.49 times lower than vehicle)
- PGE2 level vs vehicle (PND 35 HYP): ↓ (1-1.49 times lower than vehicle)
- PGF2α level vs vehicle (PND 35 HYP): ↑ (1-1.49 times higher than vehicle)
- phosphoLEA level vs vehicle (PND 35 HYP): ↑ (1-1.49 times higher than vehicle)
- 2-linoleoyl glycerol level vs vehicle (PND 35 MID): ↓ (1-1.49 times lower than vehicle)
- 6-ketoPGF1α level vs vehicle (PND 35 MID): ↓ (1-1.49 times lower than vehicle)
- Arachidonic acid level vs vehicle (PND 35 MID): ↓ (1-1.49 times lower than vehicle)
- N- stearoyl valine level vs vehicle (PND 35 MID): ↑ (1-1.49 times higher than vehicle)
- N-arachidonoyl GABA level vs vehicle (PND 35 MID): ↓ (1-1.49 times lower than vehicle)
- N-arachidonoyl alanine level vs vehicle (PND 35 MID): ↓ (1-1.49 times lower than vehicle)
- N-arachidonoyl glycine level vs vehicle (PND 35 MID): ↓ (1-1.49 times lower than vehicle)
- N-arachidonoyl serine level vs vehicle (PND 35 MID): ↓ (1-1.49 times lower than vehicle)
- N-arachidonoyl taurine level vs vehicle (PND 35 MID): ↓ (1-1.49 times lower than vehicle)
- N-arachidonoyl tyrosine level vs vehicle (PND 35 MID): ↓ (1-1.49 times lower than vehicle)
- N-docosahexaenoyl GABA level vs vehicle (PND 35 MID): ↓ (1-1.49 times lower than vehicle)
- N-docosahexaenoyl alanine level vs vehicle (PND 35 MID): ↓ (1-1.49 times lower than vehicle)
- N-docosahexaenoyl glycine level vs vehicle (PND 35 MID): ↓ (1-1.49 times lower than vehicle)
- N-docosahexaenoyl leucine level vs vehicle (PND 35 MID): ↑ (1-1.49 times higher than vehicle)
- N-docosahexaenoyl methionine level vs vehicle (PND 35 MID): ↓ (1-1.49 times lower than vehicle)
- N-docosahexaenoyl serine level vs vehicle (PND 35 MID): ↓ (1-1.49 times lower than vehicle)
- N-docosahexaenoyl tyrosine level vs vehicle (PND 35 MID): ↓ (1-1.49 times lower than vehicle)
- N-docosahexaenoyl valine level vs vehicle (PND 35 MID): ↑↑ (1.50-1.99 times higher than vehicle)
- N-linoleoyl ethanolamine level vs vehicle (PND 35 MID): ↑ (1-1.49 times higher than vehicle)
- N-oleoyl GABA level vs vehicle (PND 35 MID): ↓ (1-1.49 times lower than vehicle)
- N-oleoyl ethanolamine level vs vehicle (PND 35 MID): ↓ (1-1.49 times lower than vehicle)
- N-oleoyl phenylalanine level vs vehicle (PND 35 MID): ↑ (1-1.49 times higher than vehicle)
- N-oleoyl valine level vs vehicle (PND 35 MID): ↑ (1-1.49 times higher than vehicle)
- N-palmitoyl leucine level vs vehicle (PND 35 MID): ↑ (1-1.49 times higher than vehicle)
- N-palmitoyl phenylalanine level vs vehicle (PND 35 MID): ↑ (1-1.49 times higher than vehicle)
- N-palmitoyl valine level vs vehicle (PND 35 MID): ↑↑ (1.50-1.99 times higher than vehicle)
- N-stearoyl methionine level vs vehicle (PND 35 MID): ↑ (1-1.49 times higher than vehicle)
- N-stearoyl tyrosine level vs vehicle (PND 35 MID): ↓ (1-1.49 times lower than vehicle)
- PGE2 level vs vehicle (PND 35 MID): ↑ (1-1.49 times higher than vehicle)
- PGF2α level vs vehicle (PND 35 MID): ↑ (1-1.49 times higher than vehicle)
- phosphoLEA level vs vehicle (PND 35 MID): ↑ (1-1.49 times higher than vehicle)
- 2-arachidonoyl glycerol level vs vehicle (PND 35 STEM): ↓ (1-1.49 times lower than vehicle)
- 2-linoleoyl glycerol level vs vehicle (PND 35 STEM): ↓ (1-1.49 times lower than vehicle)
- N- stearoyl valine level vs vehicle (PND 35 STEM): ↑ (1-1.49 times higher than vehicle)
- N-arachidonoyl GABA level vs vehicle (PND 35 STEM): ↓ (1-1.49 times lower than vehicle)
- N-arachidonoyl taurine level vs vehicle (PND 35 STEM): ↓ (1-1.49 times lower than vehicle)
- N-docosahexaenoyl leucine level vs vehicle (PND 35 STEM): ↑ (1-1.49 times higher than vehicle)
- N-docosahexaenoyl valine level vs vehicle (PND 35 STEM): ↑ (1-1.49 times higher than vehicle)
- N-oleoyl leucine level vs vehicle (PND 35 STEM): ↑ (1-1.49 times higher than vehicle)
- N-oleoyl proline level vs vehicle (PND 35 STEM): ↑ (1-1.49 times higher than vehicle)
- N-oleoyl valine level vs vehicle (PND 35 STEM): ↑ (1-1.49 times higher than vehicle)
- N-palmitoyl leucine level vs vehicle (PND 35 STEM): ↑ (1-1.49 times higher than vehicle)
- N-palmitoyl phenylalanine level vs vehicle (PND 35 STEM): ↑ (1-1.49 times higher than vehicle)
- N-palmitoyl proline level vs vehicle (PND 35 STEM): ↑ (1-1.49 times higher than vehicle)
- N-palmitoyl tryptophan level vs vehicle (PND 35 STEM): ↓ (1-1.49 times lower than vehicle)
- N-palmitoyl valine level vs vehicle (PND 35 STEM): ↑ (1-1.49 times higher than vehicle)
- PGE2 level vs vehicle (PND 35 STEM): ↑ (1-1.49 times higher than vehicle)
- number of lipids changed (PND 35 STEM, 70 detected): 16
- 2-arachidonoyl glycerol level vs vehicle (PND 35 STR): ↓ (1-1.49 times lower than vehicle)
- 2-linoleoyl glycerol level vs vehicle (PND 35 STR): ↓↓ (1.50-1.99 times lower than vehicle)
- 2-oleoyl glycerol level vs vehicle (PND 35 STR): ↓ (1-1.49 times lower than vehicle)
- N- stearoyl valine level vs vehicle (PND 35 STR): ↑ (1-1.49 times higher than vehicle)
- N-arachidonoyl GABA level vs vehicle (PND 35 STR): ↓↓ (1.50-1.99 times lower than vehicle)
- N-arachidonoyl alanine level vs vehicle (PND 35 STR): ↓ (1-1.49 times lower than vehicle)
- N-arachidonoyl glycine level vs vehicle (PND 35 STR): ↓ (1-1.49 times lower than vehicle)
- N-arachidonoyl phenylalanine level vs vehicle (PND 35 STR): ↓ (1-1.49 times lower than vehicle)
- N-arachidonoyl serine level vs vehicle (PND 35 STR): ↓↓ (1.50-1.99 times lower than vehicle)
- N-arachidonoyl taurine level vs vehicle (PND 35 STR): ↓ (1-1.49 times lower than vehicle)
- N-arachidonoyl tyrosine level vs vehicle (PND 35 STR): ↓ (1-1.49 times lower than vehicle)
- N-docosahexaenoyl GABA level vs vehicle (PND 35 STR): ↓ (1-1.49 times lower than vehicle)
- N-docosahexaenoyl alanine level vs vehicle (PND 35 STR): ↓ (1-1.49 times lower than vehicle)
- N-docosahexaenoyl ethanolamine level vs vehicle (PND 35 STR): ↓ (1-1.49 times lower than vehicle)
- N-docosahexaenoyl leucine level vs vehicle (PND 35 STR): ↑ (1-1.49 times higher than vehicle)
- N-docosahexaenoyl serine level vs vehicle (PND 35 STR): ↓ (1-1.49 times lower than vehicle)
- N-oleoyl GABA level vs vehicle (PND 35 STR): ↓ (1-1.49 times lower than vehicle)
- N-oleoyl alanine level vs vehicle (PND 35 STR): ↓ (1-1.49 times lower than vehicle)
- N-oleoyl ethanolamine level vs vehicle (PND 35 STR): ↓↓ (1.50-1.99 times lower than vehicle)
- N-oleoyl glycine level vs vehicle (PND 35 STR): ↓ (1-1.49 times lower than vehicle)
- N-palmitoyl ethanolamine level vs vehicle (PND 35 STR): ↓ (1-1.49 times lower than vehicle)
- N-palmitoyl leucine level vs vehicle (PND 35 STR): ↑ (1-1.49 times higher than vehicle)
- N-palmitoyl valine level vs vehicle (PND 35 STR): ↑↑ (1.50-1.99 times higher than vehicle)
- N-stearoyl alanine level vs vehicle (PND 35 STR): ↓ (1-1.49 times lower than vehicle)
- N-stearoyl leucine level vs vehicle (PND 35 STR): ↓ (1-1.49 times lower than vehicle)
- N-stearoyl serine level vs vehicle (PND 35 STR): ↓ (1-1.49 times lower than vehicle)
- PGE2 level vs vehicle (PND 35 STR): ↑ (1-1.49 times higher than vehicle)
